Measured values as given in US10947216B2, “Amide compounds and method for making and using” (Rigel Pharmaceuticals, Inc., priority 2016, dated 2021).
Structures can show the parent of a compound that is named as a salt.

What was measured:
IL-23 (p19/p40) = test: IL23-p19 ELISA, dendritic cells (DC differentiated from human PBMC, IFNγ primed), LPS stimulated; type: cell-based; settings: Dendritic cell, human PBMC-derived dendritic cells, 1 h compound pre-incubation, LPS 1 μg/ml 18 hours, 10 pt
Procedure, shortened: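 PBMC-derived DCs (GM-CSF 100 ng/ml + IL-4 20 ng/ml, 7 days) primed 24 h with IFNγ 50 ng/ml, 50K cells/well; compound pre-incubated 1 h at 37° C, then LPS, 18 h. Supernatant IL-23 by p19-capture/p40-detection chemiluminescent ELISA; cytotoxicity by Cell Titer Glo.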

IL-23p19 = test: LPS Induced IL23p19 in THP-1 Cells (with IFNγ Primed) Assay; type: cell-based, human; settings: Homo sapiens, THP-1, THP-1 cells, IFNγ (50 ng/mL) primed, 1 hour compound pre-incubation, LPS 1 ug/mL 18 hours, 10 pt; read-out: IL23-p19 ELISA, THP1-IFNy, LPS, 10 pt EC50
Procedure, shortened: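 THP-1 cells (50K/well) primed ~18 h with IFNγ (50 ng/mL) in RPMI/10% FBS, then incubated with compound in duplicate for 18 h at 37° C. Supernatant IL-23p19 measured by chemiluminescent sandwich ELISA, giving EC50 by curve fitting. Toxicity assessed in parallel on the remaining cells by Cell Titer Glo.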

EC50 (IL-23 (p19/p40)) [µM] | EC50 (IL-23p19) [µM] | SMILES
0.628 | 0.463 | COCCOCCn1cc(NC(=O)c2cccc(-c3cn[nH]c3)n2)c(-c2ccccn2)n1 [Compound I-153, N-(1-(2-(2-methoxyethoxy)ethyl)-3-(pyridin-2-yl)-1H-pyrazol-4-yl)-6-(1H-pyrazol-4-yl)picolinamide formate]
6.51 | 4.92 | COCCOCCn1cc(NC(=O)c2cccc(Nc3ccc4[nH]ncc4c3)n2)c(-c2ccccn2)n1 [Compound I-154, 6-((1H-indazol-5-yl)amino)-N-(1-(2-(2-methoxyethoxy)ethyl)-3-(pyridin-2-yl)-1H-pyrazol-4-yl)picolinamide formate]
2.41 | 6.17 | COCCOCCn1cc(NC(=O)c2cccc(Nc3ccc4n[nH]cc4c3)n2)c(-c2ccccn2)n1 [Compound I-155, 6-((2H-indazol-5-yl)amino)-N-(1-(2-(2-methoxyethoxy)ethyl)-3-(pyridin-2-yl)-1H-pyrazol-4-yl)picolinamide formate]
2.73 | 21.4 | COCCOCCn1cc(NC(=O)c2cccc(Oc3ccnc(N)c3)n2)c(-c2ccccn2)n1 [Compound I-156, 6-((2-aminopyridin-4-yl)oxy)-N-(1-(2-(2-methoxyethoxy)ethyl)-3-(pyridin-2-yl)-1H-pyrazol-4-yl)picolinamide formate]
4.2 | 7.52 | Cn1cc(NC(=O)c2cccc(-c3ccnc(NCC(F)(F)F)c3)n2)c(-c2ccccn2)n1 [Compound I-161, N-(1-methyl-3-(pyridin-2-yl)-1H-pyrazol-4-yl)-2′-((2,2,2-trifluoroethyl)amino)-[2,4′-bipyridine]-6-carboxamide formate]
0.167 | 0.499 | COC1CC(n2cc(NC(=O)c3cccc(-c4cncc(C)c4)n3)c(-c3ccccn3)n2)C1 (stereo not drawn) [Compound I-162, N-(1-(3-methoxycyclobutyl)-3-(pyridin-2-yl)-1H-pyrazol-4-yl)-5′-methyl-[2,3′-bipyridine]-6-carboxamide formate]
1.06 | 0.371 | COC1CC(n2cc(NC(=O)c3cccc(-c4cn[nH]c4)n3)c(-c3ccccn3)n2)C1 (stereo not drawn) [Compound I-163, N-(1-(3-methoxycyclobutyl)-3-(pyridin-2-yl)-1H-pyrazol-4-yl)-6-(1H-pyrazol-4-yl)picolinamide formate]
2.89 | 1.37 | Cc1cncc(-c2cccc(C(=O)Nc3cn(C4CCOCC4)nc3-c3ccccn3)n2)c1 [Compound I-164, 5′-methyl-N-(3-(pyridin-2-yl)-1-(tetrahydro-2H-pyran-4-yl)-1H-pyrazol-4-yl)-[2,3′-bipyridine]-6-carboxamide]
0.071 | 1.09 | O=C(Nc1cn(C2CCOCC2)nc1-c1ccccn1)c1cccc(-c2cc[nH]n2)n1 [Compound I-166, 6-(1H-pyrazol-3-yl)-N-(3-(pyridin-2-yl)-1-(tetrahydro-2H-pyran-4-yl)-1H-pyrazol-4-yl)picolinamide]
2.42 | 0.557 | COCCCn1cc(NC(=O)c2cccc(-c3cncc(C)c3)n2)c(-c2ccccn2)n1 [Compound I-169, N-(1-(3-methoxypropyl)-3-(pyridin-2-yl)-1H-pyrazol-4-yl)-5′-methyl-[2,3′-bipyridine]-6-carboxamide]
7.07 | 19.5 | CN1CCN(c2ccc(-c3nn(C)cc3NC(=O)c3cccc(-c4cn[nH]c4)n3)nc2)CC1 [Compound I-174, N-(1-methyl-3-(5-(4-methylpiperazin-1-yl)pyridin-2-yl)-1H-pyrazol-4-yl)-6-(1H-pyrazol-4-yl)picolinamide]
6.84 | 9.01 | CN1CCN(c2ccc(-c3nn(C)cc3NC(=O)c3cccc(-c4cc[nH]n4)n3)nc2)CC1 [Compound I-175, N-(1-methyl-3-(5-(4-methylpiperazin-1-yl)pyridin-2-yl)-1H-pyrazol-4-yl)-6-(1H-pyrazol-3-yl)picolinamide]
12.2 | 21.7 | Cc1cncc(-c2cccc(C(=O)Nc3cn(C)nc3-c3ccc(N4CCN(C)CC4)cn3)n2)c1 [Compound I-177, 5′-methyl-N-(1-methyl-3-(5-(4-methylpiperazin-1-yl)pyridin-2-yl)-1H-pyrazol-4-yl)-[2,3′-bipyridine]-6-carboxamide dihydrochloride]
19.3 | 2.07 | Cc1cncc(-c2cccc(C(=O)Nc3cn(C)nc3-c3ccc(OCC(C)(C)O)cn3)n2)c1 [Compound I-178, N-(3-(5-(2-hydroxy-2-methylpropoxy)pyridin-2-yl)-1-methyl-1H-pyrazol-4-yl)-5′-methyl-[2,3′-bipyridine]-6-carboxamide]
1.19 | 0.34 | Cn1cc(NC(=O)c2cccc(-c3cc[nH]n3)n2)c(-c2ccc(OCC(C)(C)O)cn2)n1 [Compound I-180, N-(3-(5-(2-hydroxy-2-methylpropoxy)pyridin-2-yl)-1-methyl-1H-pyrazol-4-yl)-6-(1H-pyrazol-3-yl)picolinamide]
4.17 | 1.49 | Cc1cncc(-c2cccc(C(=O)Nc3cn(C)nc3-c3ccc(OC4COC4)cn3)n2)c1 [Compound I-181, 5′-methyl-N-(1-methyl-3-(5-(oxetan-3-yloxy)pyridin-2-yl)-1H-pyrazol-4-yl)-[2,3′-bipyridine]-6-carboxamide]
0.216 | 0.0961 | Cn1cc(NC(=O)c2cccc(-c3cc[nH]n3)n2)c(-c2ccc(OC3COC3)cn2)n1 [Compound I-183, N-(1-methyl-3-(5-(oxetan-3-yloxy)pyridin-2-yl)-1H-pyrazol-4-yl)-6-(1H-pyrazol-3-yl)picolinamide]
8.25 | 0.328 | CCO[C@H]1CC[C@H](n2cc(NC(=O)c3cccc(-c4cn[nH]c4)n3)c(-c3ncc(F)cc3F)n2)CC1 [Compound I-184, N-(3-(3,5-difluoropyridin-2-yl)-1-(trans-4-ethoxycyclohexyl)-1H-pyrazol-4-yl)-6-(1H-pyrazol-4-yl)picolinamide]
